Our source for the Activity values is ChEMBL document CHEMBL1158793, “Taxezopidines M and N, taxoids from the Japanese yew, Taxus cuspidata” (J Nat Prod, 2005).

Assay [1] is described as follows: Inhibition of CaCl2-induced microtubule depolymerization at 5 uM by spectrophotometry.
The next assay has as its system L1210. Put plainly: Cytotoxicity against mouse L1210 cells at 10 ug/ml. In kind it is functional, cell-based.
Another assay has as its system KB. Put plainly: Cytotoxicity against human KB cells at 10 ug/ml. It counts as functional, cell-based.
Assay [2] is described as follows: Inhibition of CaCl2-microtubule depolymerization at 50 uM by spectrophotometry.

Active and inactive are the calls of the source. The calls are words filed in the database; no cut-off is given here.

Consider `CC(=O)O[C@H]1C(=O)[C@@]2(C)[C@H]([C@H](OC(=O)c3ccccc3)[C@]3(O)C[C@H](OC(=O)[C@H](O)[C@@H](NC(=O)c4ccccc4)c4ccccc4)C(C)=C1C3(C)C)[C@]1(OC(C)=O)CO[C@@H]1C[C@@H]2O`, for which the outcome in assay [1] was Active.

`C=C1[C@@H](OC(=O)C[C@H](c2ccccc2)N(C)C)C[C@H](OC(C)=O)[C@@]2(C)[C@@H](OC(C)=O)[C@H](OC(C)=O)[C@]3(O)[C@@]4(C)CO[C@]3(C)C(=O)C[C@H]4[C@@H](OC(C)=O)[C@H]12`: the result with L1210 and in the assay on KB was inactive.

`C=C1[C@@H](OC(=O)C[C@H](c2ccccc2)N(C)C)CC[C@@]2(C)[C@@H](OC(C)=O)[C@H](OC(C)=O)C3=C(C)[C@]4(O)C[C@@H]([C@@H](OC(C)=O)[C@H]12)[C@@]3(C)CO4`: the outcome in the assay on L1210 and in the assay on KB was inactive. For the same compound, the outcome in assay [2] was Active.
